In patent US20110288086A1, “POLYCYCLIC QUINAZOLINES, PREPARATION THEREOF, AND USE THEREOF” (priority 2010, published 2011):
Values after ≈ are worked out from the molar mass of the structure shown.

Key:
[1] = test system: MDA-MB-435s human breast carcinoma cells; assay: Tumor cell IC50, CCK-8 kit, MDA-MB-435s; format: cell-based; conditions: 435s cells
Excerpt: (§1) The inhibitory activities of the compounds on tumor cells (IC50) in vitro
(§2) The IC50 (IC50, unit: μg/ml) values of the compounds on Hut78 T-Lymphocytic Leukemia cells, Jurkat E6-1 human T-cell lymphoma, PANC-1 human pancreatic cancer cells, A549 human lung cancer cells, K562 human chronicity marrow leukemic cells, Hep3B2. 1-7 human hepatoma carcinoma cells, MDA-MB-435s human breast carcinoma cells, Colo320 human rectal cancer cells, PC-3 human carcinoma of prostate, and HepG2 human hepatoma carcinoma cells were determined using a CCK-8 kit. Erlotinib hydrochloride was used as the positive control drug.

[2] = test system: Hut78 T-Lymphocytic Leukemia cells; assay: Tumor cell inhibition ratio, CCK-8 kit, Hut78; conditions: Homo sapiens, HuT78, read-out: Antiproliferative effect (inhibition ratio) Hut-78
Excerpt: (§3) The inhibitory activities of the compounds on tumor cells in vitro

[3] = test system: Colo320 human rectal cancer cells; assay: Tumor cell inhibition ratio, CCK-8 kit, Colo320; conditions: COLO 320, read-out: Antiproliferative effect (inhibition ratio) Colo320
Excerpt: as §3

[4] = test system: K562 human chronicity marrow leukemic cells; assay: Tumor cell IC50, CCK-8 kit, K562; format: cell-based
Excerpt: as §1, §2

[5] = test system: PC-3 human carcinoma of prostate; assay: Tumor cell inhibition ratio, CCK-8 kit, PC-3; conditions: read-out: Antiproliferative effect (inhibition ratio) PC-3
Excerpt: as §3

[6] = test system: A549 human lung cancer cells; assay: Tumor cell IC50, CCK-8 kit, A549; format: cell-based
Excerpt: as §1, §2

[7] = test system: Colo320 human rectal cancer cells; assay: Tumor cell IC50, CCK-8 kit, Colo320; format: cell-based; conditions: COLO 320
Excerpt: as §1, §2

EGFR tyrosine kinase = EGFR tyrosine kinase (Homo sapiens, UniProt P00533); assay: EGFR tyrosine kinase inhibition in vitro (Invitrogen EGFR inhibitor screening kit PV3193)
Excerpt: The inhibitory activities of EGFR tyrosine kinase in vitro
Erlotinib hydrochloride was used as a positive control drug.

[8] = test system: Hep3B2. 1-7 human hepatoma carcinoma cells; assay: Tumor cell IC50, CCK-8 kit, Hep3B; format: cell-based
Excerpt: as §1, §2

[9] = test system: MDA-MB-435s human breast carcinoma cells; assay: Tumor cell inhibition ratio, CCK-8 kit, MDA-MB-435s; conditions: read-out: Antiproliferative effect (inhibition ratio) 435s
Excerpt: as §3

[10] = test system: PANC-1 human pancreatic cancer cells; assay: Tumor cell inhibition ratio, CCK-8 kit, PANC-1; conditions: PANC-1, read-out: Antiproliferative effect (inhibition ratio) PANC-1
Excerpt: as §3

[11] = test system: Hep3B2.1-7 human hepatoma carcinoma cells; assay: Tumor cell inhibition ratio, CCK-8 kit, Hep3B; conditions: read-out: Antiproliferative effect (inhibition ratio) Hep3B
Excerpt: as §3

[12] = test system: PC-3 human carcinoma of prostate; assay: Tumor cell IC50, CCK-8 kit, PC-3; format: cell-based; conditions: PC-3 cells
Excerpt: as §1, §2

[13] = test system: PANC-1 human pancreatic cancer cells; assay: Tumor cell IC50, CCK-8 kit, PANC-1; format: cell-based; conditions: PANC-1 cells
Excerpt: as §1, §2

[14] = test system: Jurkat E6-1 human T-cell lymphoma; assay: Tumor cell IC50, CCK-8 kit, Jurkat E6-1; format: cell-based; conditions: E6-1 cells
Excerpt: as §1, §2

[15] = test system: Jurkat E6-1 human T-cell lymphoma; assay: Tumor cell inhibition ratio, CCK-8 kit, Jurkat E6-1; conditions: Jurkat E6.1, read-out: Antiproliferative effect (inhibition ratio) E6-1
Excerpt: as §3

aurora kinase B = molecular target: T1, aurora kinase B (Homo sapiens, UniProt Q96GD4); assay: Aurora kinase B inhibition in vitro (Invitrogen aurora kinase screening kit PV3174); format: biochemical
T1 construct: purchased Invitrogen PV3174

[16] = test system: A549 human lung cancer cells; assay: Tumor cell inhibition ratio, CCK-8 kit, A549; conditions: A549, read-out: Antiproliferative effect (inhibition ratio) A549
Excerpt: as §3

[17] = test system: K562 human chronicity marrow leukemic cells; assay: Tumor cell inhibition ratio, CCK-8 kit, K562; conditions: K562, read-out: Antiproliferative effect (inhibition ratio) K562
Excerpt: as §3

Acute Toxicity Study = conditions: in vivo; preliminary screening, Bliss statistical method
Experimental: The acute toxicity experiments were carried out according to the methods disclosed in the book of Modern Pharmacological Methods, edited chiefly by Zhang Jun-Tian.

[18] = test system: Hut78 T-Lymphocytic Leukemia cells; assay: Tumor cell IC50, CCK-8 kit, Hut78; format: cell-based; conditions: Homo sapiens, Hut-78 cells
Excerpt: as §1, §2

Chain of EGFR tyrosine kinase (P00533 25-1210): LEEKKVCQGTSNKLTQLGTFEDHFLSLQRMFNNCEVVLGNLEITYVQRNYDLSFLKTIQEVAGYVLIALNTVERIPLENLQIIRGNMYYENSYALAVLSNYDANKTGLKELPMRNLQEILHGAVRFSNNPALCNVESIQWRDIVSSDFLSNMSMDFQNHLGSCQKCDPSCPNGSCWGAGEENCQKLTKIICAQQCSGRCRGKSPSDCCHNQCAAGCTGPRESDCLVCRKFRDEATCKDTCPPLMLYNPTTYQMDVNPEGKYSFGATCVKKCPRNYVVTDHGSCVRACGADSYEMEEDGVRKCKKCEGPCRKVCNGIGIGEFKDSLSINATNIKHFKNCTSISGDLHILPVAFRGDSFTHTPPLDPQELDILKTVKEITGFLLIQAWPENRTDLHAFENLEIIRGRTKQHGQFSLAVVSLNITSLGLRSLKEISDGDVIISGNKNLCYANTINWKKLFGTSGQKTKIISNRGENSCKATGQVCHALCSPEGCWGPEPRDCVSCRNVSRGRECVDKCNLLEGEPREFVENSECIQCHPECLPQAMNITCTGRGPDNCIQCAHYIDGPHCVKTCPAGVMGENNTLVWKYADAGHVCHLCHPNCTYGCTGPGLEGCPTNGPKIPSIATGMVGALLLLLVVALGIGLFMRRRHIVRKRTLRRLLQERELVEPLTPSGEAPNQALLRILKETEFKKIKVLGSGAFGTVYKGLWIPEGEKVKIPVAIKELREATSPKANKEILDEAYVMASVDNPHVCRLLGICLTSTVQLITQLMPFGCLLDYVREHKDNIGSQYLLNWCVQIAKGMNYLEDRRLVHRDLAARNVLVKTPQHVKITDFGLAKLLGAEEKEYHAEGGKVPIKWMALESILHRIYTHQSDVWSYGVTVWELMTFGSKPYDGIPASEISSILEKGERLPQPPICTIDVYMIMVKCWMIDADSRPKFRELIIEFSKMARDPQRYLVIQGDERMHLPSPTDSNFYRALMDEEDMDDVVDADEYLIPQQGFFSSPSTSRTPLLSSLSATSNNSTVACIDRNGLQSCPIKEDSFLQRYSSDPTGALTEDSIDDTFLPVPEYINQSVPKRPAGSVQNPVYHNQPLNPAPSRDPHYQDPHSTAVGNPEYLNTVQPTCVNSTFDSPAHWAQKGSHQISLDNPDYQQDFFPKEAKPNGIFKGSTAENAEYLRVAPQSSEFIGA
T1 sequence (Q96GD4 whole entry): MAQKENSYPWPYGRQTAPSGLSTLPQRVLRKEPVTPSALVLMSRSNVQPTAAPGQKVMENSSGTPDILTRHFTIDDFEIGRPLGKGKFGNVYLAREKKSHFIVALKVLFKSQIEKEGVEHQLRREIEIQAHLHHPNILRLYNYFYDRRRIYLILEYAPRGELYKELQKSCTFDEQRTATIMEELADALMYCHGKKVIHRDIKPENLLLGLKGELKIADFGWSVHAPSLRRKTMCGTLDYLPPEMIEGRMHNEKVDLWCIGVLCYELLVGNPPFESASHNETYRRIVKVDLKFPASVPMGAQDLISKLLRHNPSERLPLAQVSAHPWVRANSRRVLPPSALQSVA

SMILES	IC50 [1]	inhibition at 10 µM [2]	inhibition at 100 µM [2]	inhibition at 10 µM [3]	inhibition at 100 µM [3]	IC50 [4]	inhibition at 10 µM [5]	inhibition at 100 µM [5]	IC50 [6]	IC50 [7]	The inhibition ratio of the compound on EGFR(%) (EGFR tyrosine kinase; 40 μM)	The inhibition ratio of the compound on EGFR(%) (EGFR tyrosine kinase; 200 μM)	IC50 [8]	inhibition at 10 µM [9]	inhibition at 100 µM [9]	inhibition at 10 µM [10]	inhibition at 100 µM [10]	inhibition at 10 µM [11]	inhibition at 100 µM [11]	IC50 [12]	also measured
COCCOc1cc2c(cc1OCCOC)C1=Nc3cccc(Br)c3CN1C=N2.Cl [Compound V-2, 9-bromo-2,3-bis(2-methoxyethoxy)-8H-quinazolino[4,3-b]quinazoline hydrochloride hemihydrate]	0.42 µg/mL	28.9%	73.8%	57%	89.6%	34 µg/mL	72.2%	92.7%	0.67 µg/mL	32.3 µg/mL	62.9%	97.9%	9.83 µg/mL	59.8%	82.6%	59.7%	95.9%	53.5%	90%	4.78 µg/mL	IC50 [13]: 0.11 µg/mL; IC50 [14]: 15.3 µg/mL; inhibition at 10 µM [15]: 56.2%; inhibition at 100 µM [15]: 83.1%; The inhibition ratio of the compound on Aurora B(%) (aurora kinase B; 40 μM): 53.2%; The inhibition ratio of the compound on Aurora B(%) (aurora kinase B; 200 μM): 95.8%; inhibition at 10 µM [16]: 68.6%; inhibition at 100 µM [16]: 90.7%; inhibition at 10 µM [17]: 65.4%; inhibition at 100 µM [17]: 91.1%; LD50 (Acute Toxicity Study): 2050 mg/kg; IC50 [18]: 61.1 µg/mL
COCCOc1cc2c(cc1OCCOC)C1=Nc3cc(Cl)ccc3CN1C=N2 [Compound V-15, 11-chloro-2,3-bis(2-methoxyethoxy)-8H-quinazolino[4,3-b]quinazoline]	21 µg/mL (≈ 50.5 µM)	61%	93.2%	58.3%	96.5%	1.5 µg/mL (≈ 3.61 µM)	42.4%	81.3%	1.01 µg/mL (≈ 2.43 µM)	55.6 µg/mL (≈ 134 µM)	60.7%	94.0%	6.91 µg/mL (≈ 16.6 µM)	72.6%	92%	61.8%	94.1%	52.4%	97.4%	24.6 µg/mL (≈ 59.2 µM)	IC50 [13]: 8.32 µg/mL (≈ 20 µM); IC50 [14]: 5.72 µg/mL (≈ 13.8 µM); inhibition at 10 µM [15]: 69.5%; inhibition at 100 µM [15]: 85.8%; The inhibition ratio of the compound on Aurora B(%) (aurora kinase B; 40 μM): 58.7%; The inhibition ratio of the compound on Aurora B(%) (aurora kinase B; 200 μM): 92.5%; inhibition at 10 µM [16]: 75.6%; inhibition at 100 µM [16]: 90.8%; inhibition at 10 µM [17]: 45.2%; inhibition at 100 µM [17]: 91.5%; LD50 (Acute Toxicity Study): 2970 mg/kg; IC50 [18]: 14.3 µg/mL (≈ 34.5 µM)
COCCOc1cc2c(cc1OCCOC)C1=Nc3cc(COS(C)(=O)=O)cc([N+](=O)[O-])c3CN1C=N2.Cl [Compound V-20, mesylate-{9-nitro-2,3-bis(2-methoxyethoxy)-8H-quinazolino[4,3-b]quinazoline-11-methanol}ester hydrochloride]	16.8 µg/mL	52.3%	82.1%	66.9%	92.3%	10.1 µg/mL	46.8%	75.2%	12.1 µg/mL	13.1 µg/mL	59.9%	98.4%	71.4 µg/mL	65.7%	93.9%	54.8%	88.2%	60.7%	92.2%	22.7 µg/mL	IC50 [13]: 3.72 µg/mL; IC50 [14]: 0.05 µg/mL; inhibition at 10 µM [15]: 57.9%; inhibition at 100 µM [15]: 95.6%; The inhibition ratio of the compound on Aurora B(%) (aurora kinase B; 40 μM): 58.9%; The inhibition ratio of the compound on Aurora B(%) (aurora kinase B; 200 μM): 96.4%; inhibition at 10 µM [16]: 55%; inhibition at 100 µM [16]: 90.7%; inhibition at 10 µM [17]: 40.7%; inhibition at 100 µM [17]: 97.4%; LD50 (Acute Toxicity Study): 750 mg/kg; IC50 [18]: 55.3 µg/mL
COCCOc1cc2c(cc1OCCOC)C1=Nc3cc(Cl)ccc3C(C)N1C=N2.O=C(O)CC(O)C(=O)O (stereo not shown) [Compound V-22, 11-chloro-8-methyl-2,3-bis(2-methoxyethoxy)-8H-quinazolino[4,3-b]quinazoline malate]	6.18 µg/mL	54.1%	94.6%	43.8%	99%	19.6 µg/mL	64%	97%	9.87 µg/mL	4.67 µg/mL	63.2%	95.6%	14.4 µg/mL	63.4%	94.1%	60.9%	95.4%	62.3%	90.7%	7.69 µg/mL	IC50 [13]: 84.3 µg/mL; IC50 [14]: 13.3 µg/mL; inhibition at 10 µM [15]: 67%; inhibition at 100 µM [15]: 98%; The inhibition ratio of the compound on Aurora B(%) (aurora kinase B; 40 μM): 57.2%; The inhibition ratio of the compound on Aurora B(%) (aurora kinase B; 200 μM): 95.6%; inhibition at 10 µM [16]: 54.6%; inhibition at 100 µM [16]: 96.2%; inhibition at 10 µM [17]: 23.1%; inhibition at 100 µM [17]: 88.8%; LD50 (Acute Toxicity Study): 1340 mg/kg; IC50 [18]: 11.4 µg/mL
COc1cc2c(cc1OCCCN1CCCC1)C1=Nc3cccc(Cl)c3CN1C=N2 [Compound V-24, 9-chloro-3-methoxy-2-(3-(pyrrolidine-1-yl)propoxy)-8H-quinazolino[4,3-b]quinazoline]	53.4 µg/mL (≈ 126 µM)	44.3%	99.6%	52.7%	99.4%	10.3 µg/mL (≈ 24.3 µM)	53.5%	98.9%	23.3 µg/mL (≈ 54.8 µM)	4.76 µg/mL (≈ 11.2 µM)	53.1%	94.3%	43.1 µg/mL (≈ 101 µM)	48.9%	66.2%	42.4%	99.9%	60.3%	94.6%	3.41 µg/mL (≈ 8.02 µM)	IC50 [13]: 1.94 µg/mL (≈ 4.57 µM); IC50 [14]: 9.86 µg/mL (≈ 23.2 µM); inhibition at 10 µM [15]: 46.6%; inhibition at 100 µM [15]: 87.3%; The inhibition ratio of the compound on Aurora B(%) (aurora kinase B; 40 μM): 52.5%; The inhibition ratio of the compound on Aurora B(%) (aurora kinase B; 200 μM): 90.3%; inhibition at 10 µM [16]: 50.7%; inhibition at 100 µM [16]: 98.2%; inhibition at 10 µM [17]: 53.6%; inhibition at 100 µM [17]: 93.8%; IC50 [18]: 2.14 µg/mL (≈ 5.04 µM)
COc1cc2c(cc1OCCCN1CCOCC1)C1=Nc3cc(Cl)ccc3CN1C=N2 [Compound V-28, 4-(3-((11-chloro-3-methoxy-8H-quinazolino[4,3-b]quinazoline-2-yl)oxy)propyl)morpholine]	16.3 µg/mL (≈ 37 µM)	59.2%	90.5%	16.3%	63.3%	7.84 µg/mL (≈ 17.8 µM)	56.4%	88%	6.42 µg/mL (≈ 14.6 µM)	59.7 µg/mL (≈ 135 µM)	64.4%	98.7%	36.8 µg/mL (≈ 83.3 µM)	54.9%	90.7%	51.7%	95.6%	40.1%	92.8%	31.4 µg/mL (≈ 71.3 µM)	IC50 [13]: 18.8 µg/mL (≈ 42.6 µM); IC50 [14]: 10 µg/mL (≈ 22.7 µM); inhibition at 10 µM [15]: 40.4%; inhibition at 100 µM [15]: 95.4%; The inhibition ratio of the compound on Aurora B(%) (aurora kinase B; 40 μM): 45.2%; The inhibition ratio of the compound on Aurora B(%) (aurora kinase B; 200 μM): 78.7%; inhibition at 10 µM [16]: 53.7%; inhibition at 100 µM [16]: 97.5%; inhibition at 10 µM [17]: 64.6%; inhibition at 100 µM [17]: 99.9%; IC50 [18]: 16.7 µg/mL (≈ 37.9 µM)
